According to patent US8742121B2, “Process for the preparation of small molecule inhibitors of MDM2 and intermediates used therein” (The Regents of the University of Michigan, priority 2005, dated 2014):
Like-named read-outs stand apart in the source and are kept apart here.

Key:
[1] = molecular target: T1, recombinant human MDM2 protein (residues 1-118, His-tag) (Homo sapiens, UniProt Q00987); assay: Fluorescence polarization (FP)-based competitive binding assay with PMDM6-F probe; details: for Ki: competition with PMDM6-F, FIG. 4B/5
T1 construct: The recombinant MDM2 human protein (residues 1-118) fused to His-tag at the N terminus; His-tag (N)

[2] = system: LNCaP prostate cancer cells (p53 wild-type); assay: WST-8 cell growth inhibition assay, LNCaP; type: cell-based; details: Homo sapiens, 96 h
[3] = system: PrEC normal prostate epithelial cells; assay: Protection of normal cells from TAXOL (trypan blue viability); type: cell-based, human; details: pretreatment 1 μM and 2.5 μM for 24 hours, then 1 μM TAXOL for 2 days, FIG. 15
Protocol: PrEC normal prostate epithelial cells were seeded in 6 well pates and incubated with Ke-63 (1 μM and 2.5 μM) for 24 hours, then 1 μM TAXOL (paclitaxel) was added for 2 days. Trypan blue was used to determine cell viability.

[4] = system: HCT116 (wild-type p53) colon cancer cells; assay: WST-8 cell growth inhibition assay, HCT116; type: cell-based
[5] = system: CCD-18Co normal colon fibroblast cells; assay: Cell cycle progression (BrdU/7-AAD flow cytometry), CCD-18Co; type: cell-based; details: 22 + 2 hours, FIG. 14
Protocol: (§1) Cell cycle progression was evaluated in RKO (wild-type p53) and HT-29 (mutant p53) colon cancer cell lines and CCD-18Co normal colon fibroblast cells by determining S-phase cells by incorporation of bromodeoxyuridine (BrdU) followed by staining with FITC-labeled anti-BrdU antibody and the total DNA-content by staining with 7-aminoactinomycin D (7-AAD) according to manufacturer's instructions (BD Biosciences, San Jose, Calif.). Briefly, cancer and normal cells, after overnight incubation, were treated with out test compounds for 22 hours, followed by an additional 2 hours of incubation with 10 μM of BrdU. Cells were harvested, fixed and stained with FITC-labeled anti-BrdU and 7-AAD. Cell cycle distribution was analyzed by flow cytometry. Cells were acquired and data analyzed by using CellQuest software (BD Biosciences).

[6] = system: RKO (wild-type p53) colon cancer cells; assay: WST-8 cell growth inhibition assay, RKO; type: cell-based
[7] = molecular target: T2, p53-MDM2 interaction (Homo sapiens, UniProt Q00987); assay: Co-immunoprecipitation/Western blotting of p53-MDM2 interaction in HCT116 lysates; type: biochemical; details: increasing concentrations, 1 h at 4° C., FIG. 10
T2 construct: endogenous in cells; host or cells: HCT116 colon cancer cells (lysate)
Protocol: Co-immunoprecipitation (Co-IP)/Western blotting assays were performed to assess the effects of Ke-43 on p53-MDM2 interaction. After harvesting and washing once with cold PBS, HCT116 colon cancer cells were lysed by sonication in cold Co-IP buffer (50 mM Tris (pH 7.5), 150 mM NaCl, 1 mM EDTA (pH 8.0), 0.5% NP-40) containing 1 mM phenylmethylsulfonyl fluoride and protease inhibitor cocktail. Sonicated lysates were then centrifuged at 12,000×g at 4° C. for 15 minutes. Supernatant containing 2 mg protein was incubated in the absence or presence of Ke-43 for 1 h at 4° C., followed by addition agarose beads, conjugated either with anti-p53 antibody (FL-393, Santa Cruz) or with a non-specific antibody. After mixing for 2 h at 4° C., the agarose beads were washed 3 times with cold Co-IP buffer, boiled in sample buffer followed by SDS-PAGE and the presence of p53 and MDM2 was detected by Western blotting with mouse monoclonal antibodies against p53 and MDM-2 proteins.

[8] = system: RKO (wild-type p53) colon cancer cells; assay: Cell death (trypan blue) and apoptosis (sub-diploid DNA, PI staining); type: cell-based; details: 4 days; RKO compared with HT-29 and CCD-18Co, FIG. 13
Protocol: RKO (wild-type p53) and HT-29 (mutant p53) colon cancer cell lines and CCD-18Co normal colon fibroblast cells were treated with increasing doses of Ke-43 or Ke-61 for 4 days in 6-well Petri dishes. Trypan blue dye exclusion assays were performed to determine the ability of the inhibitors to induce cell death. After 4 days of treatment, floating and adherent cells were harvested and stained with 0.2% of trypan blue solution (Sigma, St Louis, Mo.). Each treatment was performed in triplicate and at least 100 cells were counted. Cells stained blue or morphologically unhealthy cells were scored as dead cells. To evaluate apoptosis, sub-diploid DNA content in cells treated with or without test inhibitors was analyzed by propidium iodide (PI) staining After washing once with cold PBS, cells were fixed in 70% ethanol for 1 day at −20° C. Ethanol-fixed cells were then washed twice with PBS and stained with a staining solution containing propidium iodide (PI) at 50 ng/ml and RNAse A at 100 ng/ml in PBS, for 20 minutes in dark at room temperature. Acquisition of cells and analysis of sub-diploid DNA content was performed by flow cytometry using CellQuest software.

[9] = system: RKO (wild-type p53) colon cancer cells; assay: Cell cycle progression (BrdU/7-AAD flow cytometry), RKO; type: cell-based; details: 22 + 2 hours, FIG. 14
Protocol: as §1

[10] = system: HT-29 (mutant p53) colon cancer cells; assay: Cell cycle progression (BrdU/7-AAD flow cytometry), HT-29; type: cell-based; details: HT-29, 22 + 2 hours, FIG. 14
Protocol: as §1

[11] = system: p53, MDM2 and p21 expression in RKO (wild-type p53) cells; assay: Western blot of p53 and its target gene products MDM2 and p21; type: cell-based; details: 24 hours; RKO compared with HT-29 (mutant p53), FIG. 12
Protocol: Cancer cells were treated with test compounds or 0.1% DMSO for 24 hours. Cells were harvested by trypsinization and washed with cold phosphate buffer saline, pH 7.5 (Invitrogen, Carlsbad, Calif.). Cells were lysed for 30 minutes in ice-cold lysis buffer (50 mM Tris (pH 7.5), 150 mM NaCl, 1 mM EDTA (pH 8.0), 25 mM sodium fluoride, 1% NP-40 and 0.1% SDS) containing 2 mM sodium orthovanadate, 1 mM phenylmethylsulfonyl fluoride and protease inhibitor cocktail (Roche Applied Science, Indianapolis, Ind.). Next, cell extracts were centrifuged at 12,000×g at 4° C. for 10 minutes to obtain clarified lysates. Protein was estimated by Bio-Rad dye. Cell lysates containing […] protein were resolved on a 4-20% tris-glycine gel (Invitrogen, Carlsbad, Calif.) and transferred onto poly(vinylidene difluoride) membranes. Immunodetection of proteins on the transfer membrane was performed by using anti-p53 (Ab-6, Oncogene Research Products, Boston, Mass.), anti-MDM2 (SMP14, Santa Cruz Biotechnology, Santa Cruz, Calif.) and anti-p21 (BD Biosciences, San Diego, Calif.) mouse monoclonal antibodies. Antibody to β-actin (Sigma, St Louis, Mo.) was used to assess the protein loading.

[12] = system: normal human prostate epithelial cells (PrEC) with wild-type p53; assay: WST-8 cell growth inhibition assay, PrEC; type: cell-based
[13] = system: PC-3 prostate cancer cells (p53 null); assay: WST-8 cell growth inhibition assay, PC-3
[14] = 4 days, FIG. 6, read-out: IC50 inhibition of cell growth

SMILES: CCC[C@H]1N[C@@H](C(=O)N(C)C)[C@H](c2cccc(Cl)c2)[C@@]12C(=O)Nc1cc(Cl)ccc12 [Example 1e, (2′R,3S,4′R,5′R) 6-Chloro-4′-(3-Chloro-Phenyl)-2-Oxo-2′-Propyl-1,2-Dihydro-Spiro[Indole-3,3′-Pyrrolidine]-5′-Carboxylic Acid Dimethylamide]
- Ki [1]: 0.65 µM
- IC50 [2, 14]: 2.7 µM

SMILES: CC(C)(C)C[C@H]1N[C@@H](C(=O)NCCN2CCOCC2)[C@H](c2cccc(Cl)c2F)[C@@]12C(=O)Nc1cc(Cl)ccc12 [Ke-63, (2′R,3S,4S,5′R) 6-Chloro-4′-(3-Chloro-2-Fluoro-Phenyl)-2′-(2,2-Dimethyl-Propyl)-2-Oxo-1,2-Dihydro-Spiro[Indole-3,3′-Pyrrolidine]-5′-Carboxylic Acid (2-Morpholin-4-yl-Ethyl)-Amide]
- protection of cells from TAXOL (cell viability) [3]: cells were protected from TAXOL

SMILES: CC(C)C[C@H]1N[C@@H](C(=O)N(C)C)[C@H](c2cccc(Cl)c2)[C@@]12C(=O)Nc1cc(Cl)ccc12 [Example 1b, (2′R,3S,4′R,5′R) 6-Chloro-4′-(3-Chloro-Phenyl)-2′-Isobutyl-2-Oxo-1,2-Dihydro-Spiro[Indole-3,3′-Pyrrolidine]-5′-Carboxylic Acid Dimethylamide]
- Ki [1]: 0.3 µM
- times more potent than 1a (Ki) ([1]; relative to 1a): 28 times
- IC50 [2, 14]: 2.1 µM

SMILES: CC(C)(C)C[C@H]1N[C@@H](C(=O)NCCN2CCOCC2)[C@H](c2cccc(Br)c2)[C@@]12C(=O)Nc1cc(Cl)ccc12 [Ke-43, (2′R,3S,4′R,5′R) 6-Chloro-4′-(3-Bromo-Phenyl)-2′-(2,2-Dimethyl-Propyl)-2-Oxo-1,2-Dihydro-Spiro[Indole-3,3′-Pyrrolidine]-5′-Carboxylic Acid (2-Morpholin-4-yl-Ethyl)-Amide]
- Ki values (in words) ([1]; Example 132, FIG. 9, more potent than the natural p53 peptide): low nM to sub-nM range
- growth inhibitory activity ([4]; HCT116, 4 days, FIG. 11): potent growth inhibitory activity
- specificity over cancer cells expressing mutant p53 (HT-29) ([4]; HCT116 versus HT-29): greater than 18 fold
- S-phase / cell cycle progression [5]: dose-dependent depletion of S-phase
- specificity over cancer cells expressing mutant p53 (HT-29) ([6]; RKO versus HT-29): greater than 13 fold
- growth inhibitory activity ([6]; RKO, 4 days, FIG. 11): potent growth inhibitory activity
- immunoprecipitation of MDM2 by anti-p53 antibody [7]: disrupts the interaction between p53 and MDM2
- apoptosis [8]: Only cancer cells expressing wild-type p53 underwent apoptosis
- S-phase / cell cycle progression [9]: dose-dependent depletion of S-phase
- cell cycle progression [10]: no appreciable effect on cell cycle progression
- accumulation of p53 and its target gene-products [11]: induced accumulation of p53 and its target gene-products only in RKO cells expressing wild-type p53

SMILES: CN(C)C(=O)[C@@H]1N[C@H](CC(C)(C)C)[C@]2(C(=O)Nc3cc(Cl)ccc32)[C@H]1c1cccc(Cl)c1 [Example 1d, (2′R,3S,4′R,5′R) 6-Chloro-4′-(3-Chloro-Phenyl)-2-Oxo-2′-(2,2-Dimethylpropyl)-1,2-Dihydro-Spiro[Indole-3,3′-Pyrrolidine]-5′-Carboxylic Acid Dimethylamide]
- IC50 ([12]; Homo sapiens, 96 h, PrEC, 4 days, FIG. 8): 6 µM
- times less potent in PrEC cells than in LNCaP cells ([12]; PrEC versus LNCaP): 13 times
- IC50 ([13]; Homo sapiens, 96 h, read-out: IC50 inhibition of cell growth): 22.5 µM
- times less active in PC-3 cells than in LNCaP cells ([13]; PC-3 versus LNCaP): 27 times
- IC50 ([2]; read-out: IC50 inhibition of cell growth): 0.83 µM

SMILES: CC(C)CC[C@H]1N[C@@H](C(=O)N(C)C)[C@H](c2cccc(Cl)c2)[C@@]12C(=O)Nc1cc(Cl)ccc12 [Example 1f, (2′R,3S,4′R,5′R) 6-Chloro-4′-(3-Chloro-Phenyl)-2′-(3-Methyl-Butyl)-2-Oxo-1,2-Dihydro-Spiro[Indole-3,3′-Pyrrolidine]-5′-Carboxylic Acid Dimethylamide]
- Ki [1]: 0.39 µM
- IC50 [2, 14]: 1.9 µM

SMILES: COc1ccc2c(c1)NC(=O)[C@]21[C@@H](CC(C)(C)C)N[C@@H](C(=O)N(C)C)[C@@H]1c1cccc(Br)c1 [Ke-61, (2′R,3S,4′R,5′R) 4′-(3-Bromo-Phenyl)-2′-(2,2-Dimethyl-Propyl)-6-Methoxy-2-Oxo-1,2-Dihydro-Spiro[Indole-3,3′-Pyrrolidine]-5′-Carboxylic Acid Dimethylamide]
- S-phase / cell cycle progression [5]: did not have a significant effect
- S-phase / cell cycle progression [9]: did not have a significant effect
- cell cycle progression [10]: did not have a significant effect

SMILES: CC(C)C[C@H]1N[C@@H](C(=O)N(C)C)[C@H](c2ccc(Cl)cc2)[C@@]12C(=O)Nc1cc(Cl)ccc12 [Example 1c, (2′R,3S,4′R,5′R) 6-Chloro-4′-(4-Chloro-Phenyl)-2′-Isobutyl-2-Oxo-1,2-Dihydro-Spiro[Indole-3,3′-Pyrrolidine]-5′-Carboxylic Acid Dimethylamide]
- Ki [1]: 7.7 µM
- times less potent than 1b (Ki) ([1]; relative to 1b): 26 times
